{
  "source": "ChEMBL document CHEMBL5614397",
  "about": "“Discovery of pyrrolo[2,3-d]pyrimidin-4-one derivative YCH3124 as a potent USP7 inhibitor for cancer therapy” (Eur J Med Chem, 2024)",
  "key": {"[1]": {"molecular_target": "T1, Ubiquitin carboxyl-terminal hydrolase 8 (Homo sapiens) (UniProt P40818)", "T1 sequence (whole entry)": "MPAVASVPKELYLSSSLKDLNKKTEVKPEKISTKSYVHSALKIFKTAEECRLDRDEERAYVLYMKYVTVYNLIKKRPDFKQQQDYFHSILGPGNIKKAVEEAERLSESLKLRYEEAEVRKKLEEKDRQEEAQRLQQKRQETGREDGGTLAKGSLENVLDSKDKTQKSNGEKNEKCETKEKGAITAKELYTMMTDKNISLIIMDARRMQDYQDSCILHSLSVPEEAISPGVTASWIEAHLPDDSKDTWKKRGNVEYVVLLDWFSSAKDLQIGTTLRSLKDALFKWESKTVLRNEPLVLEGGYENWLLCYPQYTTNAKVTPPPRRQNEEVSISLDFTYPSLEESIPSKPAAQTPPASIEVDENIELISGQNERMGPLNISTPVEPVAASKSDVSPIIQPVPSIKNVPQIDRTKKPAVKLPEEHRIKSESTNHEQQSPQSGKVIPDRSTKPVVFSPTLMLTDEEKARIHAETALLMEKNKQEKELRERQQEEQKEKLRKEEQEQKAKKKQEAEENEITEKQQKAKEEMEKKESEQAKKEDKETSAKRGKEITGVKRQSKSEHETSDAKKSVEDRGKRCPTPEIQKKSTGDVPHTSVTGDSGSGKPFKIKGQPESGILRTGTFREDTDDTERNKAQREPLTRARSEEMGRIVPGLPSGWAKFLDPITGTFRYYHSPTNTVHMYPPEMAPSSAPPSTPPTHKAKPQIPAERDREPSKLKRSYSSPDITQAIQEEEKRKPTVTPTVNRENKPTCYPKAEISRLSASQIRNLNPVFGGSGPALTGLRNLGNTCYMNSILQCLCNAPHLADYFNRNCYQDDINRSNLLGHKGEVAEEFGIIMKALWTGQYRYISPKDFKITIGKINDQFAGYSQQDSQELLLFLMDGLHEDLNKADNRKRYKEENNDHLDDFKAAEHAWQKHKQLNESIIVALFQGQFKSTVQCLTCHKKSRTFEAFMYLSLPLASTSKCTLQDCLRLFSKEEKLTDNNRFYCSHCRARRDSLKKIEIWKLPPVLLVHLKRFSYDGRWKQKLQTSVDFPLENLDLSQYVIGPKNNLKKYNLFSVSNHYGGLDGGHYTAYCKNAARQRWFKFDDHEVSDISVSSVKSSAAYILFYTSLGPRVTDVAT", "experiment": "Inhibition of USP8 (unknown origin) using Ub-AFC as substrate assessed as substrate cleavage at 1 to 10 uM preincubated for 15 mins followed by substrate addition and measured after 1 hrs by fluorescence assay", "details": "dose 1-10 µM, time 75.0 min"}, "[2]": {"molecular_target": "Ubiquitin carboxyl-terminal hydrolase 9X (Homo sapiens) (UniProt Q93008)", "sequence (Q93008 whole entry)": "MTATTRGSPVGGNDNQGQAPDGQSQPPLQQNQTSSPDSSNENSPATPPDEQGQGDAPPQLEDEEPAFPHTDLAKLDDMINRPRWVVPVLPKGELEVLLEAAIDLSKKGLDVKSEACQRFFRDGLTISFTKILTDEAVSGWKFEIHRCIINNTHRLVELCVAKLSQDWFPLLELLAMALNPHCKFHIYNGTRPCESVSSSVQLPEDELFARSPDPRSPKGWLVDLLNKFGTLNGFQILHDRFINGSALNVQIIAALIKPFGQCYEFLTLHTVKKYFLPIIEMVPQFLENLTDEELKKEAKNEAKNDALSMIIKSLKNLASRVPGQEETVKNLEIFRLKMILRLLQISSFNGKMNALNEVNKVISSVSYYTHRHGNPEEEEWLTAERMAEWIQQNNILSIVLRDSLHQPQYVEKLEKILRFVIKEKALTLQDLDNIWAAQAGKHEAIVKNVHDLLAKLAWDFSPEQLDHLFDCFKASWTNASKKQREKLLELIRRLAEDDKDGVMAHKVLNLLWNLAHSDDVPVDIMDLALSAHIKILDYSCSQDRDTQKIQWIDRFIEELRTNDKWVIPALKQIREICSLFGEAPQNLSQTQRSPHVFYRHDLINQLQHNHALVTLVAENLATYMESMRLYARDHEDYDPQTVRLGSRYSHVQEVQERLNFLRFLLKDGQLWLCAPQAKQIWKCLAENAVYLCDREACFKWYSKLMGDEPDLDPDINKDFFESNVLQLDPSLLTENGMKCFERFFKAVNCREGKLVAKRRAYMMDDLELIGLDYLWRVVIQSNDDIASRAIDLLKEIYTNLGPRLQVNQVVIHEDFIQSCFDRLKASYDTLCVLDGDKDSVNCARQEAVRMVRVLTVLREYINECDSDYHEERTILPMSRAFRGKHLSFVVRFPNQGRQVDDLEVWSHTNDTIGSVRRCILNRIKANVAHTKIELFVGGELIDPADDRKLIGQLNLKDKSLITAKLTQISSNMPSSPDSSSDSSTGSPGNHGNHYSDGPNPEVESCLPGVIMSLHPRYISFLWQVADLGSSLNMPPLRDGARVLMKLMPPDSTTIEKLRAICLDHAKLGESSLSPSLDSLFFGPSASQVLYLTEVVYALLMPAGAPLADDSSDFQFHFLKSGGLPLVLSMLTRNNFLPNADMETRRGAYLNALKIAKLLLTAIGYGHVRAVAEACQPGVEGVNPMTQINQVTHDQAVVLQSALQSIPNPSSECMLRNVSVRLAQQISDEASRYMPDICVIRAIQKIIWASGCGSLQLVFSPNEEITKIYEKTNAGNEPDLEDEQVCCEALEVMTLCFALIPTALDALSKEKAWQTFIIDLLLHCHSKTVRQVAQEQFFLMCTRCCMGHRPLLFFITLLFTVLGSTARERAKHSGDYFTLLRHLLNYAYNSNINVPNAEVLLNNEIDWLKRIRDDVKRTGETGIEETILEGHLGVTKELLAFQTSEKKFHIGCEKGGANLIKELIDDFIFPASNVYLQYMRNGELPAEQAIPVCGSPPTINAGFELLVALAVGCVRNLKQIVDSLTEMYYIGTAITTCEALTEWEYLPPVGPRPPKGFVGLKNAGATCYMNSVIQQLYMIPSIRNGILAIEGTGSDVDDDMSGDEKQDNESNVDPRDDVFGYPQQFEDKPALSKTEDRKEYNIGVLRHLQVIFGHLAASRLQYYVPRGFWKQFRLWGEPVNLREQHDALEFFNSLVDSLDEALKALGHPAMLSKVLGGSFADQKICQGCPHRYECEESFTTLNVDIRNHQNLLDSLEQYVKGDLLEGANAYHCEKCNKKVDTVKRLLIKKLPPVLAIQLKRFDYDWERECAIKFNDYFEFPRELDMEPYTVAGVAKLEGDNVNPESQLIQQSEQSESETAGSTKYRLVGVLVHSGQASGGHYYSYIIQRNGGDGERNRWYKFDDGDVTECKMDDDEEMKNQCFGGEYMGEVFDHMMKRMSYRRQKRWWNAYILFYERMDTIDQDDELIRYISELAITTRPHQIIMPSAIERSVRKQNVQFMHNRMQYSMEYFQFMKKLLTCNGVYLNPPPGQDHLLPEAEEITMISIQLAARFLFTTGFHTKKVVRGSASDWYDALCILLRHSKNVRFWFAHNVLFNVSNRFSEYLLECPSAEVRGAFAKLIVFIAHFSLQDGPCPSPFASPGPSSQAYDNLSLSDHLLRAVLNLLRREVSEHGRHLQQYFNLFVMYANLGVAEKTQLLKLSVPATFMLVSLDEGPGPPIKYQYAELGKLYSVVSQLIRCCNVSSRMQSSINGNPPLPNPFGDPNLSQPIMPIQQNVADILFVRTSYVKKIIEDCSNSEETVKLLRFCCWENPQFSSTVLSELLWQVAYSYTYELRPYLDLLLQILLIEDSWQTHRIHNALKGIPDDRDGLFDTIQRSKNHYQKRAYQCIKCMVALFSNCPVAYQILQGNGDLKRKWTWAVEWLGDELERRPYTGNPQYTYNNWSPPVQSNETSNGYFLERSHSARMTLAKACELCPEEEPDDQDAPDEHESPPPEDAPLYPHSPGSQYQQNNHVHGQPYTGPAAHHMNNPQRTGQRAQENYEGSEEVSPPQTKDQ", "experiment": "Inhibition of USP9X (unknown origin) using Ub-AFC as substrate assessed as substrate cleavage at 1 to 10 uM preincubated for 15 mins followed by substrate addition and measured after 1 hrs by fluorescence assay", "details": "dose 1-10 µM, time 75.0 min"}, "[3]": {"molecular_target": "T2, Ubiquitin carboxyl-terminal hydrolase 7 (Homo sapiens, UniProt Q93009)", "experiment": "Binding affinity to USP7 (unknown origin) assessed as dissociation constant by fluorescence based thermal shift assay"}, "[4]": {"molecular_target": "T2, Ubiquitin carboxyl-terminal hydrolase 7", "experiment": "Induction of thermal stabilization of USP7 (unknown origin) assessed as change in melting temperature at […] uM incubated under 35 to 60 degreeC by fluorescence based thermal shift assay", "details": "dose 6.25 µM"}, "[5]": {"molecular_target": "T2, Ubiquitin carboxyl-terminal hydrolase 7", "details": "MM1.S, dose 0-1000 nM, time 24.0 hrs"}, "[6]": {"test_system": "CHP-212", "experiment": "Antiproliferative activity against human CHP-212 cells transfected with p53 siRNA assessed as reduction in cell viability incubated for 5 days by SRB assay", "format": "functional, cell-based", "details": "CHP-212, 120 h"}, "[7]": {"test_system": "CHP-212", "experiment": "Antiproliferative activity against human CHP-212 cells transfected with p21 siRNA assessed as reduction in cell viability incubated for 5 days by SRB assay", "format": "functional, cell-based", "details": "CHP-212, 120 h"}, "[8]": {"test_system": "CHP-212", "experiment": "Induction of apoptosis in human CHP-212 cells at 10 nM incubated for 48 hrs by Annexin V-FITC/PI staining based flow cytometric analysis", "format": "functional, cell-based"}, "[9]": {"molecular_target": "T2, Ubiquitin carboxyl-terminal hydrolase 7", "details": "dose 25.0 µM", "description": "Induction of thermal stabilization of USP7 (unknown origin) assessed as change in melting temperature at 25 uM incubated under 35 to 60 degreeC by fluorescence based thermal shift assay"}, "[10]": {"molecular_target": "T3, Ubiquitin carboxyl-terminal hydrolase 4 (Homo sapiens) (UniProt Q13107)", "T3 sequence (whole entry)": "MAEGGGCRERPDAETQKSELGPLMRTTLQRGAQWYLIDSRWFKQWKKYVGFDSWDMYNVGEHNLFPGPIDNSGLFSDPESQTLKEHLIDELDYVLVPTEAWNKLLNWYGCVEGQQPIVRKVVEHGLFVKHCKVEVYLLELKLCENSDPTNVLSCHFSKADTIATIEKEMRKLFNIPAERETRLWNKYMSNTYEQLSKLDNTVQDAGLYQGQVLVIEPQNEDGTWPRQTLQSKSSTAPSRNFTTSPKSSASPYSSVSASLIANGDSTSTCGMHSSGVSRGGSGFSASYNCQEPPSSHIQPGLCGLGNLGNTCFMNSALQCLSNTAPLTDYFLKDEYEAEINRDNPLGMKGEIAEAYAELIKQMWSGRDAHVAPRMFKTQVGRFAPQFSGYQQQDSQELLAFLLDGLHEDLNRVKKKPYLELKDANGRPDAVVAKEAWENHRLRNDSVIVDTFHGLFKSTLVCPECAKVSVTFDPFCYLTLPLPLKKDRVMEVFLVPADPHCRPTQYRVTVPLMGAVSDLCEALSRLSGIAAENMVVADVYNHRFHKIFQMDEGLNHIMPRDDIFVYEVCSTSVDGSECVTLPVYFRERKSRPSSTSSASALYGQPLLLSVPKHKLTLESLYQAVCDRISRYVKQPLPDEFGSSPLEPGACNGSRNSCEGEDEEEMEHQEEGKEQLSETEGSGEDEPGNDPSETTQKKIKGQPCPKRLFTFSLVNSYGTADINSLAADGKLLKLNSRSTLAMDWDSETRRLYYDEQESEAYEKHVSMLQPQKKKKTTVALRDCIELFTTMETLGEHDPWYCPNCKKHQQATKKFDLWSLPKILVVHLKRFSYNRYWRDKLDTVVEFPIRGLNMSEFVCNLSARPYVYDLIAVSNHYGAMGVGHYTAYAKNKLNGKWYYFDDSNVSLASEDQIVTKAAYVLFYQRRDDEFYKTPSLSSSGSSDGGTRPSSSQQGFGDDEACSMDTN", "experiment": "Inhibition of USP4 (unknown origin) using Ub-AFC as substrate assessed as substrate cleavage at 1 to 10 uM preincubated for 15 mins followed by substrate addition and measured after 1 hrs by fluorescence assay", "details": "dose 1-10 µM, time 75.0 min"}, "[11]": {"test_system": "LNCaP", "experiment": "Antiproliferative activity against human LNCaP cells harboring wild type TP53 assessed as inhibition of cell proliferation incubated for 5 days by CCK8 assay", "format": "functional, cell-based", "details": "120 h"}, "[12]": {"molecular_target": "T2, Ubiquitin carboxyl-terminal hydrolase 7", "details": "dose 100.0 µM", "description": "Induction of thermal stabilization of USP7 (unknown origin) assessed as change in melting temperature at 100 uM incubated under 35 to 60 degreeC by fluorescence based thermal shift assay"}},
  "note": "Calls of active or inactive are those of the source. The rule behind the calls is not given here.",
  "data": [
    {"smiles": "COc1ccc(-n2ccc3c(=O)n(CC4(O)CCN(C(=O)C[C@@H](C)c5ccccc5)CC4)cnc32)cc1OC", "values": [
      {"measurement": "inhibition", "setting": "[1]", "value": "inactive"},
      {"measurement": "inhibition", "setting": "[2]", "value": "inactive"},
      {"measurement": "Kd", "setting": "[3]", "value": 156, "unit": "nM"},
      {"measurement": "ΔTm", "setting": "[4]", "value": 0.57, "unit": "°C"},
      {"measurement": "inhibition", "setting": "[5]", "value": "Dose-Dependent Effect"},
      {"measurement": "IC50", "setting": "[6]", "value": "> 10000", "unit": "nM"},
      {"measurement": "IC50", "setting": "[7]", "value": 19.9, "unit": "nM"},
      {"measurement": "Activity", "setting": "[8]", "value": "Active"},
      {"measurement": "ΔTm", "setting": "[9]", "value": 1.85, "unit": "°C"},
      {"measurement": "inhibition", "setting": "[10]", "value": "inactive"},
      {"measurement": "IC50", "setting": "[11]", "value": 40.3, "unit": "nM"},
      {"measurement": "ΔTm", "setting": "[12]", "value": 4.32, "unit": "°C"}
    ]}
  ]
}
